Values of other authors in US20100285123A1, “Controlled Release Dosage Formulation of Duloxetine” (priority 2005, published 2010).
Counter-ions that a name gives are not always drawn.

Assays:
[1] = patients, acute treatment of major depression
[2] = gastric pH

headache reported [1] | insomnia reported [1] | Structure (SMILES) | incidence of nausea [1] | patients who did not experience any treatment experienced related adverse event (110 of 1279 patients) | patients discontinued due to adverse events (218 of 1279 patients, major depression, long-term) | headache, patients reporting (389 of 1279 patients) | insomnia, patients reporting (400 of 1279 patients) | nausea, patients reporting (435 of 1279 patients) | patients who experienced at least one or more treatment experienced adverse event (1169 of 1279 patients) | stability in acidic environment [2]
11.5% | 8.0% | Fc1ccc([C@@H]2CCNC[C@H]2COc2ccc3c(c2)OCO3)cc1 [Paroxetine] | 16.1% |  |  |  |  |  |  | 
 |  | CNCC[C@H](Oc1cccc2ccccc12)c1cccs1 [Duloxetine hydrochloride] |  | 8.6% | 17.0% | 30.4% | 31.3% | 34.0% | 91.4% | unstable
